We go through 18 compounds from US20050090522A1 (priority 2001, published 2005).

One series relates to HIV-1. Nature of the series: HIV-1 single-round infectious luciferase reporter virus (pseudotype) assay in HeLa CD4 CCR5 cells. The series is classed as cell-based. In outline:
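HeLa CD4 CCR5 cells (5×10^4/well, DMEM + 10% FBS) were treated with compound (final <10 μM) and infected with single-round luciferase reporter virus made in 293 cells, at MOI ~0.01. Luciferase was read 72 h post infection. EC50 came from 10-concentration percent-inhibition curves fitted to a four-parameter logistic model.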
A general note: Reporter assays use an easily measured gene product as a stand-in for the process of interest.

The next series has as its system HeLa cells. Nature of the series: Cytotoxicity assay in HeLa cells (MTT dye reduction, CC50). In outline: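 HeLa cells expressing CD4 and CCR5, grown in DMEM with 10% FBS, were used for cytotoxicity testing by MTT dye reduction; the text gives no further cytotoxicity conditions. The parallel antiviral assay exposed the same cells to compound at final <10 μM for 72 h.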

Series [1] can be described thus: Metabolic stability in pooled human liver microsomes (HLM). The conditions noted are these: 3 μM drug. As for the experimental part:
Metabolic Stability Studies of compounds in Liver Microsomes. The metabolic stability of compounds were investigated in pooled liver microsomes from humans. The human liver microsomes were obtained from BD Gentest (Lot #16, Woburn, Mass.) with a protein concentration of 20 mg/ml and a total cytochrome P450 (CYP) concentration of 0.55 nmol/mg protein. A stock solution of drug was prepared in acetonitrile at 1 mM. […] The incubation media consisted of potassium phosphate buffer (0.1 M, pH 7.4), liver microsomes (final concentration 0.9 mg/ml), magnesium chloride (0.033 mM), and a NADPH-regenerating system. […] The test compound was pre-incubated in the media for 2 min. The reaction was initiated by the addition of the cofactors. The incubation was carried out at 37° C. for 10 min. The reaction was terminated by drawing an aliquot of 100 μL from the incubation and adding into 200 μL of acetonitrile containing a reference compound as an […] analytical standard. Following vortex-mixing and centrifugation, an aliquot of 10 μL of the supernatant was analyzed by LC/MS.
GUIDELINES can be used to categorized test substances as low, intermediate or highly cleared compounds.
For accuracy, the determined measure of viral inhibition is an EC50; but the minimum plasma concentrations which should be maintained in a patient is generally believed to be at least four or five fold higher. […] Lower is better. • 4) Estimating potential exposure in man by measuring parameters such as AUC and rate of clearance by oral and iv dosing in rats. High exposure and low clearance was desired.
The stability of compounds were also evaluated to determine metabolic stability when incubated in in vitro preparations of human liver microsomes (HLM). This is one commonly used predictive system for evaluating the potential for human metabolism and projecting clearance rates in man. Compounds with low clearance rates were most desireable.

Where [2] appears, read: Human immunodeficiency virus 1, HeLa-CD4/CCR5, read-out: EC50 Group from Table 1, Table 2-1, HeLa CD4 CCR5 cells, single-round luciferase reporter virus.
Setting [3] is: Human immunodeficiency virus 1, HeLa-CD4/CCR5, read-out: EC50 category, HIV-1 single-round reporter virus assay, category 1/2/3 per Table A1 key.
Setting [4] is: cytotoxicity, Yes = CC50 above 100 uM, No = not.
The mark [5] stands for this setting: pooled human liver microsomes, Low/Intermediate/High.
Where [6] appears, read: Human immunodeficiency virus 1, HeLa-CD4/CCR5, read-out: EC50 Group from TABLE 1, HeLa CD4 CCR5 cells, single-round infectious luciferase reporter virus.
Where [7] appears, read: Human immunodeficiency virus 1, HeLa-CD4/CCR5, read-out: EC50 category, initial pseudotype assay, key in Table A1.
Setting [8] is: HeLa cells, six days with drug, MTT.
Where [9] appears, read: 0.9 mg/ml microsomes, 37° C., 10 min.

Structures are written as SMILES. Read-outs that look alike come from different tables or passages of the source.

As a reminder, the EC50 is the concentration needed to bring the measured effect to its halfway point. For `COc1cnc(-n2ccnn2)c2[nH]cc(C(=O)C(=O)N3CCN(C(=O)c4ccccc4)[C@H](C)C3)c12` [Example 255, (R)-1-benzoyl-2-methyl-4-[(4-methoxy-7-(1,2,3-triazol-1-yl)-6-azaindol-3-yl)-oxoacetyl]piperazine], the values for the 50% effective concentration (EC50) in the series on HIV-1 (setting [2]) and with HIV-1 (setting [3]) were less than 1000 nM and less than 0.2 nM, respectively. Also, the “CC50 > 100 uM” value in the series on HeLa cells (setting [4]) is listed as “Yes”. In addition, in series [1] (setting [5]), the “HLM predicted human clearance class” value is on record as “Intermediate (0.101-0.200)”.
`Cc1noc(-c2ncc(F)c3c(C(=O)C(=O)N4CCN(C(=O)c5ccccc5)CC4)c[nH]c23)n1` [Example 300]: the EC50 in the series on HIV-1 (setting [6]) was less than 1000 nM; in the series with HIV-1 (setting [3]), 0.2 to 1000 nM. In addition, in the series with HeLa cells (setting [4]), the “CC50 > 100 uM” value was “Yes”. In addition, the “HLM predicted human clearance class” value in series [1] (setting [5]) is “Low (0-0.100)”.
With `C[C@@H]1CN(C(=O)c2ccccc2)CCN1C(=O)C(=O)c1c[nH]c2c(-n3cccn3)ncc(Br)c12` [Example 139], the concentration for a half-maximal effect (EC50) with HIV-1 (setting [6]) was less than 1000 nM; in the series on HIV-1 (setting [3]), 0.2 to 1000 nM. Moreover, the “CC50 > 100 uM” value with HeLa cells (setting [4]) was “Yes”. Besides, the “HLM predicted human clearance class” value in series [1] (setting [5]) is reported as “High (0.201-0.300)”.
Taken in the same sequence, the figures for `CNC(=O)c1ncn(-c2ncc(OC)c3c(C(=O)C(=O)N4CCN(C(=O)c5ccccc5)CC4)c[nH]c23)n1` [Example 274, 1-benzoyl-4-[(4-rnethoxy-7-(3-methylaminocarbonyl-1,2,4-triazol-1-yl)-6-azaindol-3-yl)-oxoacetyl]piperazine] were less than 1000 nM, less than 0.2 nM, “Yes” and “Low (0-0.100)”.
As to `Cc1ccn(-c2ccnc3c(C(=O)C(=O)N4CCN(C(=O)c5ccccc5)[C@H](C)C4)c[nH]c23)n1` [Example 356], the EC50 was less than 1000 nM with HIV-1 (Human immunodeficiency virus 1, HeLa-CD4/CCR5, 72 h, read-out: EC50 Group from Table 1, HeLa CD4 CCR5 cells, luciferase reporter virus, harvested 72 h after infection) and 0.2 to 1000 nM in the series with HIV-1 (setting [3]). Also, the “CC50 > 100 uM” value in the series on HeLa cells (setting [4]) is recorded as “Yes”. For the same compound, the “HLM predicted human clearance class” value in series [1] (setting [5]) was “Low (0-0.100)”.
As for `Cn1ccc(-c2ncc(F)c3c(C(=O)C(=O)N4CCN(C(=O)c5ccccc5)CC4)c[nH]c23)n1` [Example 29, 1-benzoyl-4-[(4-fluoro-7-(1-methyl-pyrazol-3-yl)-6-azaindol-3-yl)-oxoacetyl]piperazine], the figures for the EC50 in the series with HIV-1 (setting [6]) and in the series with HIV-1 (setting [3]) were less than 1000 nM and 0.2 to 1000 nM, respectively. Also, the “CC50 > 100 uM” value with HeLa cells (setting [4]) is reported as “No”. Moreover, the “HLM predicted human clearance class” value in series [1] (setting [5]) is “High (0.201-0.300)”.
The like results for `COc1cnc(-c2nc(C)n[nH]2)c2[nH]cc(C(=O)C(=O)N3CCN(C(=O)c4ccccc4)CC3)c12` [Example 342] were, in that order, less than 1000 nM, less than 0.2 nM, “Yes” and “Low (0-0.100)”.
The like results for `CCc1ncn(-c2ncc(OC)c3c(C(=O)C(=O)N4CCN(C(=O)c5ccccc5)CC4)c[nH]c23)n1` [Example 321] were, in that order, less than 1000 nM, less than 0.2 nM, “Yes” and “Low (0-0.100)”.
For the compound `COc1cnc(-n2ncc(C)n2)c2[nH]cc(C(=O)C(=O)N3CCN(C(=O)c4ccccc4)CC3)c12` [Example 327], the values for the EC50 in the series with HIV-1 (setting [6]) and with HIV-1 (setting [7]) were less than 1000 nM and 0.2 to 1000 nM, respectively. Further, in the series on HeLa cells (setting [8]), the “CC50 > 100 uM” value is on record as “Yes”. The “HLM predicted human clearance class” value in series [1] (setting [9]) is recorded as “Low (0-0.100)”.
With `COc1cnc(-c2ncco2)c2[nH]cc(C(=O)C(=O)N3CCN(C(=O)c4ccccc4)CC3)c12` [Example 74, 1-benzoyl-4-[(4-methoxy-7-(oxazol-2-yl)-6-azaindol-3-yl)-oxoacetyl]piperazine], the half-maximal effective concentration (EC50) in the series on HIV-1 (setting [6]) is less than 1000 nM; with HIV-1 (setting [3]), 0.2 to 1000 nM. Further, the “CC50 > 100 uM” value in the series with HeLa cells (setting [4]) is “No”. Further, the “HLM predicted human clearance class” value in series [1] (setting [5]) is “Intermediate (0.101-0.200)”.
Taken in the same sequence, the figures for `O=C(C(=O)N1CCN(C(=O)c2ccccc2)CC1)c1c[nH]c2c(-c3ncco3)ncc(F)c12` [Example 140] were less than 1000 nM, 0.2 to 1000 nM, “Yes” and “Intermediate (0.101-0.200)”.
Taken in the same sequence, the figures for `O=C(C(=O)N1CCN(C(=O)c2ccccc2)CC1)c1c[nH]c2c(-c3ncon3)ncc(F)c12` [Example 146] were less than 1000 nM, 0.2 to 1000 nM, “Yes” and “Intermediate (0.101-0.200)”.
In the case of `COCc1ncn(-c2ncc(OC)c3c(C(=O)C(=O)N4CCN(C(=O)c5ccccc5)[C@H](C)C4)c[nH]c23)n1` [Example 324], the EC50 is less than 1000 nM in the series on HIV-1 (setting [2]) and less than 0.2 nM in the series on HIV-1 (setting [3]). Also, the “CC50 > 100 uM” value with HeLa cells (setting [4]) is on record as “Yes”. Further, in series [1] (setting [5]), the “HLM predicted human clearance class” value is on record as “Low (0-0.100)”.
Turning to `O=C(C(=O)N1CCN(C(=O)c2ccccc2)CC1)c1c[nH]c2c(-c3cn(-c4ccccc4)nn3)ccnc12` [Example 161], the EC50 in the series on HIV-1 (Human immunodeficiency virus 1, HeLa-CD4/CCR5, read-out: EC50 Group from Table 1, Table 4, HeLa CD4 CCR5 cells, single-round luciferase reporter virus) was less than 1000 nM; in the series on HIV-1 (setting [3]), less than 0.2 nM. The “CC50 > 100 uM” value in the series on HeLa cells (setting [4]) is on record as “Yes”. Moreover, in series [1] (setting [5]), the “HLM predicted human clearance class” value is listed as “High (0.201-0.300)”.
For `COc1cnc(-n2cnc(C)c2)c2[nH]cc(C(=O)C(=O)N3CCN(C(=O)c4ccccc4)CC3)c12` [Example 318], the values for the EC50 in the series on HIV-1 (setting [6]) and in the series with HIV-1 (setting [3]) were less than 1000 nM and 0.2 to 1000 nM, respectively. In addition, the “CC50 > 100 uM” value in the series with HeLa cells (setting [4]) is reported as “Yes”. The “HLM predicted human clearance class” value in series [1] (setting [5]) is listed as “Low (0-0.100)”.
Regarding `COc1cnc(-n2ncc(C)n2)c2[nH]cc(C(=O)C(=O)N3CCN(C(=O)c4ccccc4)[C@H](C)C3)c12` [Example 328], the half-maximal effective concentration (EC50) with HIV-1 (setting [2]) is less than 1000 nM; in the series with HIV-1 (setting [7]), less than 0.2 nM. In addition, in the series on HeLa cells (setting [8]), the “CC50 > 100 uM” value was “Yes”. Moreover, the “HLM predicted human clearance class” value in series [1] (setting [9]) is “Low (0-0.100)”.
`C[C@@H]1CN(C(=O)C(=O)c2c[nH]c3c(-n4ccnn4)ncc(F)c23)CCN1C(=O)c1ccccc1` [Example 314]: the half-maximal effective concentration (EC50) was less than 1000 nM with HIV-1 (setting [2]) and less than 0.2 nM in the series on HIV-1 (setting [3]). Further, the “CC50 > 100 uM” value in the series with HeLa cells (setting [4]) is on record as “Yes”. For the same compound, the “HLM predicted human clearance class” value in series [1] (setting [5]) is reported as “Low (0-0.100)”.
The like results for `COc1cnc(-n2cnc(N)n2)c2[nH]cc(C(=O)C(=O)N3CCN(C(=O)c4ccccc4)[C@H](C)C3)c12` [Example 258, (R)-1-benzoyl-2-methyl-4-[(4-methoxy-7-(3-amino-1,2,4-triazol-1-yl)-6-azaindol-3-yl)-oxoacetyl]piperazine] were, in that order, less than 1000 nM, less than 0.2 nM, “Yes” and “Low (0-0.100)”.
